Data taken from patent publication US6034134A, “1-Amino-alkylcyclohexane NMDA receptor antagonists” (Merz + Co. GmbH & Co., priority 1998, dated 2000).
Structures can show the parent of a compound that is named as a salt. Where two headings read alike, the source gives them in different places.

Columns and labels:
cortical neurones = test: Excitotoxicity: glutamate toxicity in cultured cortical neurones (MTT); assay type: cell-based, rat; details: for IC50: Rattus norvegicus, Cortical neurone
Description: Cortical neurones were obtained from cerebral cortices of 17/18 day old fetal rats (Wistar), in general following the dissociation procedure described by. After short trypsinization and gentle trituration with fire-polished Pasteur pipettes, the cell suspension was washed by centrifugation. Cells were suspended in serum-free Neurobasal medium with B27 supplement (GIBCO) before plating onto poly-L-lysine (Sigma; 0.2 mg/ml, 20 h, 4° C.) and laminin (Sigma; 2 μg/ml, 1 h, 37° C.)-coated 96-well plates (Falcon, Primaria) at a density of 5×10^4 cells/well. Cortical neurones were maintained at 37° C. in humidified 10% CO2 /90% air. […] The medium was changed first after 4 days in vitro and then every 4 days by replacing 2/3 of the medium with astrocyte-conditioned medium. Cortical neurones between day 12 and 14 in culture were used for the experiments.
New-born rat astrocytes were isolated non-enzymatically according to the method of [24]. Briefly, both hemispheres were dissected from 2-day-old rats, passed through an 80 μm gauze, and triturated with Pasteur pipettes. Cell suspension was made in Dulbecco's modified essential medium (DMEM, Gibco) supplemented with 10% fetal calf serum (FCS, Hyclone), 2 mM glutamine (Gibco) and 50 μg/ml gentamycin and transferred into untreated, plastic culture flasks (Corning; […]). Two days after plating the flasks were shaken for 10 minutes on a rotary platform (150 U/min) to remove microglial cells. The cultures were grown to confluency within 14 days, and the culture medium was changed twice weekly. Thereafter, the glial monolayers were extensively washed with serum-free Neurobasal medium (Gibco) to remove the serum. Flasks were then shaken several times to remove oligodendrocytes and neurones. To obtain conditioned medium from primary astrocytes, the cultures were incubated with fresh Neurobasal medium supplemented with B27 andglutamine. Every 2-3 days the conditioned medium was collected and replaced by fresh medium up to 4 times.
Exposure to EAA was performed in serum-free Neurobasal medium containing 100 μM glutamate and the drug to be tested. After 20 h of incubation, the cytotoxic effect was morphologically examined under a phase contrast microscope and biochemically quantified by measuring cell viability with the MTT test (Promega). This calorimetric assay measures the reduction of a tetrazolium component (MTT) into an insoluble formazan product by the mitochondria of living cells. After incubation of the cortical neurones with the dye solution for approximately 1-4 hours, a solubilization solution was added to lyse the cells and solubilize the colored product (incubation overnight at 37° C., 10% CO2, 90% RH). These samples were then read using an Elisa plate reader (Thermomax, MWG Biotech) at a wavelength of 570 nm. The amount of color produced was directly proportional to the number of viable cells.
(§1) IC50 s in patch clamp, excitotoxicity, and binding studies were calculated according to the four parameter logistic equation using the Grafit computer program (Erithacus Software, England). Ki value for binding studies were then determined according to Cheng and Prusoff. Binding values presented are means±SEM of 3-5 determinations (each performed in duplicate). […] Pearson product moment correlation analysis (Sigma Stat, Jandel Scientific) was used to compare in vitro potencies and in vivo anticonvulsant activity.

NMDA receptor = test: [3H]-(+)-MK-801 binding to rat cortical membranes; details: for Ki: read-out: MK-801 Ki, Table 9, Cheng-Prusoff with Kd for MK-801 of […]; for IC50: read-out: [3H] MK-801 IC50, Table 7, footnote calls the values Ki
Description: Male Sprague-Dawley rats (200-250 g) were decapitated and their brains were removed rapidly. The cortex was dissected and homogenized in 20 volumes of ice-cold 0.32 M sucrose using a glass-Teflon homogenizer. The homogenate was centrifuged at 1000 ×g for 10 minutes. The pellet was discarded and the supernatant centrifuged at 20,000 ×g for 20 minutes. The resulting pellet was re-suspended in 20 volumes of distilled water and centrifuged for 20 minutes at 8000 ×g. Then the supernatant and the buffy coat were centrifuged three times (48,000 ×g for 20 minutes) in the presence of 50 mM Tris-HCl, pH 8.0. All centrifugation steps were carried out at 4° C. After resuspension in 5 volumes of 50 mM Tris-HCl, pH 8.0 the membrane suspension was frozen rapidly at -80° C. On the day of assay the membranes were thawed and washed four times by resuspension in 50 mM Tris-HCl, pH 8.0 and centrifugation at 48,000 ×g for 20 minutes. The final pellet was suspended in assay buffer. The amount of protein in the final membrane preparation was determined according to the method of Lowry with some modifications. The final protein concentration used for our studies was between 250-500 μg/ml.
Membranes were re-suspended and incubated in 50 mM Tris-HCl, pH 8.0. […] Incubations were terminated using a Millipore filter system. The samples were rinsed three times with 2.5 ml ice cold assay buffer over glass fiber filters obtained from Schleicher & Schuell under a constant vacuum. Filtration was performed as rapidly as possible. Following separation and rinse, the filters were placed into scintillation liquid (5 ml; Ultima Gold) and radio activity retained on the filters was determined with a conventional liquid scintillation counter (Hewlett Packard, Liquid Scintillation Analyser).
as §1

[1] = Description: All animals were kept with water and food ad libitum under a 12 hour light-dark cycle (light on at 6 a.m.) and at a controlled temperature (20±0.5° C.). All e experiments were performed between 10 a.m. and 5 p.m. Tested agents were injected 30 min. i.p. before the induction of convulsions if not stated otherwise (see below). All compounds were dissolved in 0.9% saline.
[2] = Table 9, 100 μM glutamate, read-out: Glut Tox IC50
[3] = Table 7, 100 μM glutamate, 20 h, read-out: Glut. Tox. IC50

Compound | IC50 (cortical neurones; [2]) | Ki (NMDA receptor) | Min Lethality ([1]; mouse, in vivo, ip) | IC50 (cortical neurones; [3]) | IC50 (NMDA receptor) | Min Lethality ([1]; i.p., minimal lethal dose) | neuroprotection in vitro (in words) (cortical neurones) | IC50 (cortical neurones; 20 h, read-out: Glut. Tox. IC50) | IC50 (cortical neurones; read-out: Glut Tox IC50)
CC[C@H]1CC(C)(C)C[C@](C)(N)C1 [MRZ 2/682, (1R, 5S) trans-3-Ethyl-1,5,5-trimethylcyclohexylamine hydrochloride] | 3.11 µM | 1.99 µM | > 50 mg/kg | – | – | – | – | – | –
CCC1(N)CC(C)(C)CC(C)(C)C1 [Mrz 2/600, 1-amino-1-ethyl-3,3,5,5-tetramethylcyclohexane] | 2.1 µM | 2.28 µM | – | 2.1 µM | 2.4 µM | 50 mg/kg | – | – | –
CCC[C@H]1CCC[C@@](C)(N)C1 (relative stereo) [Mrz 2/628] | 27.3 µM | 49.2 µM | > 60 mg/kg | 27.3 µM | 35.6 µM | – | – | – | –
CCC[C@@]1(C)C[C@H](C)C[C@@](C)(N)C1 (relative stereo) [Mrz 2/618] | 17.6 µM | 24 µM | > 50 mg/kg | 17.6 µM | 32.7 µM | – | – | – | –
CCC[C@]1(C)C[C@@H](C)C[C@@](C)(N)C1 (relative stereo) [Mrz 2/619] | 30.9 µM | 57.8 µM | > 50 mg/kg | 30.9 µM | 72.1 µM | – | – | – | –
CCCC1(C)CC(C)(C)CC(C)(N)C1 (centres unmarked) [Mrz 2/614] | 1.26 µM | 13.6 µM | > 50 mg/kg | > 10 µM | 13.6 µM | – | – | – | –
CC[C@H]1CCC[C@@](C)(N)C1 (relative stereo) [Mrz 2/630] | > 100 µM | 49.1 µM | – | > 100 µM | 44.3 µM | > 30 mg/kg | – | – | –
CC1(C)CC(C)(C)CC(C)(N)C1 [Mrz 2/579, 1-amino-1,3,3,5,5-pentamethylcyclohexane] | 2.16 µM | 1.47 µM | – | 2.2 µM | 1.9 µM | 108 mg/kg | most potent | – | –
C[C@@H]1CC(C)(C)C[C@@](C)(N)C1 (relative stereo) [Mrz 2/607] | 10.1 µM | 7.74 µM | 50 mg/kg | 10.1 µM | 8.2 µM | – | – | – | –
C[C@H]1CCC[C@@](C)(N)C1 (relative stereo) [Mrz 2/631] | > 100 µM | 65.3 µM | – | > 100 µM | 69.7 µM | > 30 mg/kg | – | – | –
CCCC1(N)CC(C)(C)CC(C)(C)C1 [Mrz 2/601, 1-amino-1-propyl-3,3,5,5-tetramethylcyclohexane] | – | 8.09 µM | – | – | 7.4 µM | 50 mg/kg | – | 3.5 µM | 3.5 µM
CNC1(C)CC(C)(C)CC(C)(C)C1.Cl [Mrz 2/640, N,1,3,3,5,5-hexamethylcyclohexanamine hydrochloride] | 8.35 µM | 4.83 µM | – | 8.3 µM | 3.7 µM | 108 mg/kg | – | – | –
CCCC1(CCC)CC(C)(C)CC(C)(N)C1 (centres unmarked) [Mrz 2/626] | 19 µM | 16.5 µM | > 50 mg/kg | 19 µM | 11.6 µM | – | – | – | –
C[C@H]1CC(C)(C)C[C@@](C)(N)C1 (relative stereo) [Mrz 2/643] | 12 µM | 4.66 µM | > 50 mg/kg | 12 µM | 3.6 µM | – | – | – | –
CC[C@]1(C)C[C@@H](C)C[C@@](C)(N)C1 (relative stereo) [Mrz 2/624] | 2.7 µM | 15.1 µM | 100 mg/kg | 2.7 µM | 15.4 µM | – | – | – | –
C[C@@H]1C[C@H](C)C[C@@](C)(N)C1 [MRZ 2/680, 1,trans-3,trans-5-Trimethylcyclohexylamine hydrochloride] | 35.6 µM | 30 µM | > 50 mg/kg | – | – | – | – | – | –
CC1(C)CC(CCN)CC(C)(C)C1 [Mrz 2/644] | 4.3 µM | 4.84 µM | > 35 mg/kg | 4.3 µM | 3.8 µM | – | – | – | –
CC[C@@H]1CCC[C@@](C)(N)C1 (relative stereo) [Mrz 2/629] | > 300 µM | 49.3 µM | 100 mg/kg | > 300 µM | 39.4 µM | – | – | – | –
CCNC1(C)CC(C)(C)CC(C)(C)C1 [Mrz 2/639, N-ethyl-1-amino-1,3,3,5,5-pentamethylcyclohexane] | 6.33 µM | 4.17 µM | – | 5.7 µM | 3.3 µM | 30 mg/kg | – | – | –
CC1CC(C)CC(C)(N)C1 (centres unmarked) [Mrz 2/616, 1-amino-1,3,5-trimethylcyclohexane] | 9.1 µM | 10.4 µM | – | 9.1 µM | 15 µM | > 50 mg/kg | – | – | –
CCC1(C)CCCC(C)(N)C1 (centres unmarked) [Mrz 2/620] | 38.4 µM | 25.5 µM | > 50 mg/kg | 38.4 µM | 32.2 µM | – | – | – | –
CC[C@@]1(C)C[C@H](C)C[C@@](C)(N)C1 (relative stereo) [Mrz 2/622] | 19.3 µM | 13.3 µM | 50 mg/kg | 19.3 µM | 15 µM | – | – | – | –
